Laboratory results published in patent publication US10730874B2 (Shire Human Genetic Therapies, Inc., priority 2018, dated 2020).

molecular target: human activated kallikrein enzyme (plasma kallikrein) (Homo sapiens (Human), UniProt P03952); test: Inhibition of human activated plasma kallikrein, fluorogenic peptide substrate assay, 500 pM enzyme format; format: biochemical; conditions: 500 pM activated kallikrein enzyme, 300 uM Pro-Phe-Arg-7-amido-4-methylcoumarin substrate, 30 min preincubation, 10 min at RT; read-out: Primary Dose Response Assay: Average EC50
Sequence (P03952 391-638): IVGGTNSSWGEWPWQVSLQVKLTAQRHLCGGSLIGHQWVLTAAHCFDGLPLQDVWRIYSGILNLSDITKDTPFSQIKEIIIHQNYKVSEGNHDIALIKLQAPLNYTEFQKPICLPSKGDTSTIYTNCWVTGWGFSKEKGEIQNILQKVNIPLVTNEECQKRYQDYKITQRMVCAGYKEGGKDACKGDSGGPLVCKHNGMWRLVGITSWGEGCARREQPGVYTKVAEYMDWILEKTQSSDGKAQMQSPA
Sequence (P03952 20-390 partner): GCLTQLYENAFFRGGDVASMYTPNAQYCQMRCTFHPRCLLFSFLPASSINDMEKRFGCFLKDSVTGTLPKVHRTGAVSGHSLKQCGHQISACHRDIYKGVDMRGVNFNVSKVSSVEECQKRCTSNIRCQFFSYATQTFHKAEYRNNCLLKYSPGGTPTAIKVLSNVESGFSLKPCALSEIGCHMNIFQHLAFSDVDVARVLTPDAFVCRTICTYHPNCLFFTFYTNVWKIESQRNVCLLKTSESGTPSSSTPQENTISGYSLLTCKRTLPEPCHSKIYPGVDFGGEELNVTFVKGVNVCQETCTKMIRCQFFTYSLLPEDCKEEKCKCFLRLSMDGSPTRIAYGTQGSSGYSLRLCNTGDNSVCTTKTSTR
Outline: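 Buffer 20 mM Tris pH 7.5, EDTA, NaCl, PEG-400, Triton X-100; 300 uM Pro-Phe-Arg-AMC; enzyme–inhibitor preincubation 30 min RT. Format one: 500 pM kallikrein, 10 min RT reaction; format two: 5 pM kallikrein, 18 h RT reaction. Fluorescence read at 460 nm (380 nm excitation).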

SMILES | EC50 [nM]
O=C(NCc1ncn2ccc(Cl)c(F)c12)c1cn(Cc2cn3cc(C4CC4)ccc3n2)cn1 [Example I-271, N-((7-chloro-8-fluoroimidazo[1,5-a]pyridin-1-yl)methyl)-1-((6-cyclopropylimidazo[1,2-a]pyridin-2-yl)methyl)-1H-imidazole-4-carboxamide] | < 1
COC(=O)c1c(Cn2cc(C(=O)NCc3ncn4ccc(Cl)c(F)c34)nn2)[nH]c2cc(C3CC3)ccc12 [Example I-272, methyl 2-((4-(((7-chloro-8-fluoroimidazo[1,5-a]pyridin-1-yl)methyl)carbamoyl)-1H-1,2,3-triazol-1-yl)methyl)-6-cyclopropyl-1H-indole-3-carboxylate] | < 1
O=C(NCc1ncn2ccc(Cl)c(F)c12)c1cn(Cc2[nH]c3cc(C4CC4)ccc3c2C(=O)O)nn1 [Example I-274, 2-((4-(((7-chloro-8-fluoroimidazo[1,5-a]pyridin-1-yl)methyl)carbamoyl)-1H-1,2,3-triazol-1-yl)methyl)-6-cyclopropyl-1H-indole-3-carboxylic acid] | 100 to 2000
NC(=O)c1cc(Cn2cc(C(=O)NCc3ncn4ccc(Cl)c(F)c34)nn2)cc2cc(C3CC3)cnc12 [Example I-275, 6-((4-(((7-chloro-8-fluoroimidazo[1,5-a]pyridin-1-yl)methyl)carbamoyl)-1H-1,2,3-triazol-1-yl)methyl)-3-cyclopropylquinoline-8-carboxamide] | 10 to 100
O=C(NCc1ncn2ccc(Cl)c(F)c12)c1ccn(Cc2cn3cc(C4CC4)ccc3n2)c1 [Example I-276, N-((7-chloro-8-fluoroimidazo[1,5-a]pyridin-1-yl)methyl)-1-((6-cyclopropylimidazo[1,2-a]pyridin-2-yl)methyl)-1H-pyrrole-3-carboxamide] | < 1
O=C(NCc1ncn2cc(F)c(Cl)cc12)c1cn(Cc2cn3cc(C4CC4)ccc3n2)nn1 [Example I-277, N-((7-chloro-6-fluoroimidazo[1,5-a]pyridin-1-yl)methyl)-1-((6-cyclopropylimidazo[1,2-a]pyridin-2-yl)methyl)-1H-1,2,3-triazole-4-carboxamide] | 10 to 100
CC(NC(=O)c1cn(C(C)c2cn3cc(C4CC4)ccc3n2)nn1)c1ncn2ccc(Cl)c(F)c12 (stereo not drawn) [Example I-278, N-(1-(7-chloro-8-fluoroimidazo[1,5-a]pyridin-1-yl)ethyl)-1-(1-(6-cyclopropylimidazo[1,2-a]pyridin-2-yl)ethyl)-1H-1,2,3-triazole-4-carboxamide] | 100 to 2000
CC(NC(=O)c1cn(Cc2cn3cc(C4CC4)cc(C(O)C4COC4)c3n2)nn1)c1ncn2ccc(Cl)c(F)c12 (stereo not drawn) [Example I-280, N-(1-(7-chloro-8-fluoroimidazo[1,5-a]pyridin-1-yl)ethyl)-1-((6-cyclopropyl-8-(hydroxy(oxetan-3-yl)methyl)imidazo[1,2-a]pyridin-2-yl)methyl)-1H-1,2,3-triazole-4-carboxamide] | 10 to 100
O=C(NCc1ncn2ccc(Cl)c(F)c12)c1cn(Cc2cn3cc(C4CC4)cc(CS(=O)(=O)NCC(F)(F)F)c3n2)nn1 [Example I-281, N-((7-chloro-8-fluoroimidazo[1,5-a]pyridin-1-yl)methyl)-1-((6-cyclopropyl-8-((N-(2,2,2-trifluoroethyl)sulfamoyl)methyl)imidazo[1,2-a]pyridin-2-yl)methyl)-1H-1,2,3-triazole-4-carboxamide] | < 1
O=C(NCc1ncn2ccc(Cl)c(F)c12)c1cnn(Cc2nc3ccccn3n2)c1 [Example I-282, 1-([1,2,4]triazolo[1,5-a]pyridin-2-ylmethyl)-N-((7-chloro-8-fluoroimidazo[1,5-a]pyridin-1-yl)methyl)-1H-pyrazole-4-carboxamide] | 100 to 2000
O=C(NCc1ncn2ccc(Cl)c(F)c12)c1nnn(Cc2cn3cc(C4CC4)ccc3n2)n1 [Example I-283, N-((7-chloro-8-fluoroimidazo[1,5-a]pyridin-1-yl)methyl)-2-((6-cyclopropylimidazo[1,2-a]pyridin-2-yl)methyl)-2H-tetrazole-5-carboxamide] | < 1
O=C(NCc1ncn2ccc(Cl)c(F)c12)c1cnn(Cc2ccc3nccnc3c2)c1 [Example I-293, N-((7-chloro-8-fluoroimidazo[1,5-a]pyridin-1-yl)methyl)-1-(quinoxalin-6-ylmethyl)-1H-pyrazole-4-carboxamide] | 10 to 100
CN(C)CCOCc1cc(C2CC2)cn2cc(Cn3cc(C(=O)NCc4ncn5ccc(Cl)c(F)c45)nn3)nc12 [Example I-299, N-((7-chloro-8-fluoroimidazo[1,5-a]pyridin-1-yl)methyl)-1-((6-cyclopropyl-8-((2-(dimethylamino)ethoxy)methyl)imidazo[1,2-a]pyridin-2-yl)methyl)-1H-1,2,3-triazole-4-carboxamide] | < 1

Results, then the compound that gave them:

EC50 [nM] | SMILES
1 to 10 | N#Cc1cc(Cn2cc(C(=O)NCc3ncn4ccc(Cl)c(F)c34)nn2)cc2cc(C3CC3)cnc12 [Example I-273, N-((7-chloro-8-fluoroimidazo[1,5-a]pyridin-1-yl)methyl)-1-((8-cyano-3-cyclopropylquinolin-6-yl)methyl)-1H-1,2,3-triazole-4-carboxamide]
< 1 | O=C(NCc1ncn2ccc(Cl)c(F)c12)c1cn(Cc2cn3cc(C4CC4)cc(C(O)C4COC4)c3n2)nn1 (stereo not drawn) [Example I-279, N-((7-chloro-8-fluoroimidazo[1,5-a]pyridin-1-yl)methyl)-1-((6-cyclopropyl-8-(hydroxy(oxetan-3-yl)methyl)imidazo[1,2-a]pyridin-2-yl)methyl)-1H-1,2,3-triazole-4-carboxamide]
10 to 100 | O=C(NCc1ncn2ccc(Cl)c(F)c12)c1cnn(Cc2cn3ccccc3n2)c1 [Example I-284, N-((7-chloro-8-fluoroimidazo[1,5-a]pyridin-1-yl)methyl)-1-(imidazo[1,2-a]pyridin-2-ylmethyl)-1H-pyrazole-4-carboxamide]
10 to 100 | O=C(NCc1ncn2ccc(Cl)c(F)c12)c1cnn(Cc2cn3ncccc3n2)c1 [Example I-285, N-((7-chloro-8-fluoroimidazo[1,5-a]pyridin-1-yl)methyl)-1-(imidazo[1,2-b]pyridazin-2-ylmethyl)-1H-pyrazole-4-carboxamide]
100 to 2000 | O=C(NCc1ncn2ccc(Cl)c(F)c12)c1cn(Cc2nc3ccccn3n2)nn1 [Example I-287, 1-([1,2,4]triazolo[1,5-a]pyridin-2-ylmethyl)-N-((7-chloro-8-fluoroimidazo[1,5-a]pyridin-1-yl)methyl)-1H-1,2,3-triazole-4-carboxamide]
< 1 | O=C(NCc1ncn2ccc(Cl)c(F)c12)c1cn(Cc2cn3nc(C4CC4)ccc3n2)cn1 [Example I-288, N-((7-chloro-8-fluoroimidazo[1,5-a]pyridin-1-yl)methyl)-1-((6-cyclopropylimidazo[1,2-b]pyridazin-2-yl)methyl)-1H-imidazole-4-carboxamide]
< 1 | O=C(NCc1ncn2ccc(Cl)c(F)c12)c1nnn(Cc2cn3nc(C4CC4)ccc3n2)n1 [Example I-289, N-((7-chloro-8-fluoroimidazo[1,5-a]pyridin-1-yl)methyl)-2-((6-cyclopropylimidazo[1,2-b]pyridazin-2-yl)methyl)-2H-tetrazole-5-carboxamide]
10 to 100 | O=C(NCc1ncn2ccc(Cl)c(F)c12)c1cn(Cc2cn3ncccc3n2)nn1 [Example I-290, N-((7-chloro-8-fluoroimidazo[1,5-a]pyridin-1-yl)methyl)-1-(imidazo[1,2-b]pyridazin-2-ylmethyl)-1H-1,2,3-triazole-4-carboxamide]
10 to 100 | O=C(NCc1ncn2ccc(Cl)c(F)c12)c1cn(Cc2cn3ncccc3n2)cn1 [Example I-291, N-((7-chloro-8-fluoroimidazo[1,5-a]pyridin-1-yl)methyl)-1-(imidazo[1,2-b]pyridazin-2-ylmethyl)-1H-imidazole-4-carboxamide]
10 to 100 | O=C(NCc1ncn2ccc(Cl)c(F)c12)c1cn(Cc2cn3nccc(-n4cnnc4)c3n2)nn1 [Example I-294, 1-((8-(4H-1,2,4-triazol-4-yl)imidazo[1,2-b]pyridazin-2-yl)methyl)-N-((7-chloro-8-fluoroimidazo[1,5-a]pyridin-1-yl)methyl)-1H-1,2,3-triazole-4-carboxamide]
< 1 | O=C(NCc1ncn2ccc(Cl)c(F)c12)c1cn(Cc2cn3cc(C4CC4)cc(CN4CCCC4)c3n2)nn1 [Example I-295, N-((7-chloro-8-fluoroimidazo[1,5-a]pyridin-1-yl)methyl)-1-((6-cyclopropyl-8-(pyrrolidin-1-ylmethyl)imidazo[1,2-a]pyridin-2-yl)methyl)-1H-1,2,3-triazole-4-carboxamide]
10 to 100 | O=C(NCc1ncn2ccc(Cl)c(F)c12)c1cn(Cc2cn3nccc(CC4COC4)c3n2)nn1 [Example I-296, N-((7-chloro-8-fluoroimidazo[1,5-a]pyridin-1-yl)methyl)-1-((8-(oxetan-3-ylmethyl)imidazo[1,2-b]pyridazin-2-yl)methyl)-1H-1,2,3-triazole-4-carboxamide]
10 to 100 | O=C(NCc1ncn2ccc(Cl)c(F)c12)c1cn(Cc2cn3ccccc3n2)cn1 [Example I-297, N-((7-chloro-8-fluoroimidazo[1,5-a]pyridin-1-yl)methyl)-1-(imidazo[1,2-a]pyridin-2-ylmethyl)-1H-imidazole-4-carboxamide]
< 1 | NCc1cc(C2CC2)cn2cc(Cn3cc(C(=O)NCc4ncn5ccc(Cl)c(F)c45)nn3)nc12 [Example I-298, 1-((8-(aminomethyl)-6-cyclopropylimidazo[1,2-a]pyridin-2-yl)methyl)-N-((7-chloro-8-fluoroimidazo[1,5-a]pyridin-1-yl)methyl)-1H-1,2,3-triazole-4-carboxamide]
